Test results: US20250017959A1 (priority 2021, published 2025)

System: HSPC-pDC

Compound: CC[C@@H]1[C@H](F)C(=O)N[C@@H]1COc1nccc2cc(C(N)=O)c(OC)cc12 [IRAK4 inhibitor, Pf06650833]
- cell viability: without major effects
